Tested on: LNCaP cells
Experiment: RTCA impedance proliferation assay, LNCaP
Format: cell-based
Conditions: 10 μM; for LNCaP cell proliferation, concentration dependence: 1 μM and 0.1 μM
Experimental: (5A-5B) LNCaP cells were plated onto xCelligence E-plates at 10^4 cells per well in medium supplemented with either 10% FBS (5A) or 10% CSS (5B) serum. […] (5C-5D) LAPC4 cells were plated at 5×10^4 cells per well onto xCelligence E-plates in media supplemented with FBS (5C) or CSS (5D) and allowed to attach overnight. Treatment was conducted as in (5A-5B) and impedance measured continuously in 30 min intervals. […] Background impedance was established after incubating E-plates (Acea Biosciences, San Diego, Calif.) with 50 μL media at room temperature for 30 min and placed in RTCA. Cells were then seeded in 100 μL per well. Cells attached overnight and then treated. During attachment stage and after treatment impedance was measured every 30 min. Impedance is represented by cell index and is calculated as follows: CI=(Zi−Zo)/15Ω where Zi is impedance at an individual time point, and Zo is the background impedance. Average CI was calculated from four wells per treatment at each time point and normalized to the impedance immediately after compound addition.

In the case of `C[C@@H]1C/C=C/C=C/C=C/C=C/[C@H](O[C@@H]2O[C@H](C)[C@@H](O)[C@H](N)[C@@H]2O)C[C@@H]2O[C@](O)(C[C@@H](O)C[C@H]3O[C@@H]3/C=C/C(=O)O1)C[C@H](O)[C@H]2C(=O)O` [natamycin], the “LNCaP cell proliferation, concentration dependence” value (FBS medium) is reported as “significantly inhibited by all concentrations”, the “LNCaP cell proliferation, concentration dependence” value (medium with CSS) is reported as 10 μM and 1 μM were inhibitory and the LNCaP cellular proliferation (FBS) is reported as “slowest proliferation rate”. The LNCaP cellular impedance (androgen depleted medium (CSS)) was “abolished cellular impedance”.
